Laboratory results reported in patent US20250325534A1, “MICROBIOCIDAL TETRAHYDROISOQUINOLINE DERIVATIVES” (SYNGENTA CROP PROTECTION AG, priority 2021, published 2025).

How the values were obtained:
Glomerella lagenarium = Glomerella lagenarium (Colletotrichum lagenarium) / liquid culture (anthracnose); format: cell-based; conditions: Colletotrichum orbiculare, 72 h, photometrically 3-4 days after application, read-out: control of Glomerella lagenarium
Procedure: Example B5: Glomerella Lagenarium (Colletotrichum Lagenarium)/Liquid Culture (Anthracnose) Conidia of the fungus from cryogenic storage are directly mixed into a nutrient broth (potato dextrose broth). After placing a DMSO solution of test compound into a microtiter plate (96-well format), the nutrient broth containing the fungal spores is added. The test plates are incubated at 24° C. and the inhibition of growth is measured photometrically 3-4 days after application.

Botryotinia fuckeliana = Botryotinia fuckeliana (Botrytis cinerea) / liquid culture (gray mould); format: cell-based; conditions: 72 h, growth inhibition photometrically 3-4 days after application, read-out: control of Botryotinia fuckeliana
Procedure: Example B2: Botryotinia Fuckeliana (Botrytis cinerea)/Liquid Culture (Gray Mould) Conidia of the fungus from cryogenic storage are directly mixed into a nutrient broth (Vogels broth). After placing a DMSO solution of test compound into a microtiter plate (96-well format), the nutrient broth containing the fungal spores is added. The test plates are incubated at 24° C. and the inhibition of growth is determined photometrically 3-4 days after application.

[1] = test system: Mycosphaerella graminicola; test: Mycosphaerella graminicola (Septoria tritici) / liquid culture (Septoria blotch); format: cell-based; conditions: Zymoseptoria tritici, 96 h, photometrically 4-5 days after application, read-out: control of Mycosphaerella graminicola
Outline: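 Conidia from cryogenic storage mixed into potato dextrose broth, added to test compound in DMSO. Plates incubated at 24° C; growth inhibition read photometrically 4-5 days after application.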

Monographella nivalis = Monographella nivalis (Microdochium nivale) / liquid culture (foot rot cereals); format: cell-based; conditions: 96 h, photometrically 4-5 days after application, read-out: control of Monographella nivalis
Outline: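 Microdochium nivale conidia in potato dextrose broth were added to test compound in DMSO and incubated at 24° C. Growth inhibition was measured photometrically 4-5 days after application.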

Mycosphaerella arachidis = Mycosphaerella arachidis (Cercospora arachidicola) / liquid culture (early leaf spot); format: cell-based; conditions: 96 h, photometrically 4-5 days after application, read-out: control of Mycosphaerella arachidis
Outline: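 Cryostored M. arachidis conidia in potato dextrose broth were added to compound applied as DMSO solution. Incubated at 24 °C; growth inhibition measured photometrically 4-5 days after application.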

Alternaria solani = Alternaria solani / tomato / leaf disc (early blight); format: in vivo; conditions: foliar, inoculated 2 days after application, vs untreated control
Procedure: Example B1: Alternaria solani/Tomato/Leaf Disc (Early Blight) Tomato leaf disks cv. Baby are placed on agar in multiwell plates (24-well format) and sprayed with the formulated test compound diluted in water. The leaf disks are inoculated with a spore suspension of the fungus 2 days after application. The inoculated leaf disks are incubated at 23° C./21° C. (day/night) and 80% relative humidity under a light regime of 12 h/12 h (light/dark) in a climate cabinet and the activity of a compound is assessed as percent disease control compared to untreated when an appropriate level of disease damage appears on untreated check disk leaf disks (5-7 days after application).

Cn1cc(C2CN(C(=O)c3nnc(-c4ccccc4)s3)Cc3ccccc32)cn1 (stereo not drawn) [Compound P-162, [4-(1-methylpyrazol-4-yl)-3,4-dihydro-1H-isoquinolin-2-yl]-(5-phenyl-1,3,4-thiadiazol-2-yl)methanone]
≥ 80%: inhibition of growth at 20 ppm (Glomerella lagenarium) | inhibition of growth at 20 ppm (Botryotinia fuckeliana) | inhibition of growth at 20 ppm [1] | inhibition of growth at 20 ppm (Monographella nivalis) | inhibition of growth at 20 ppm (Mycosphaerella arachidis)

Cn1cc(C2CN(C(=O)c3nnc(-c4ccc(F)cc4F)s3)Cc3ccccc32)cn1 (stereo not drawn) [Compound P-1, [5-(2,4-difluorophenyl)-1,3,4-thiadiazol-2-yl]-[4-(1-methylpyrazol-4-yl)-3,4-dihydro-1H-isoquinolin-2-yl]methanone]
≥ 80%: inhibition of growth at 20 ppm (Glomerella lagenarium) | inhibition of growth at 20 ppm (Botryotinia fuckeliana) | inhibition of growth at 20 ppm [1] | inhibition of growth at 20 ppm (Monographella nivalis) | inhibition of growth at 20 ppm (Mycosphaerella arachidis)

Cn1cc(C2CN(C(=O)c3cc(-c4ccccc4)on3)Cc3ccccc32)cn1 (single isomer, unassigned) [Compound P-165]
≥ 80%: inhibition of growth at 20 ppm (Glomerella lagenarium) | pest or weed control at 200 ppm (Alternaria solani) | inhibition of growth at 20 ppm [1] | inhibition of growth at 20 ppm (Monographella nivalis) | inhibition of growth at 20 ppm (Mycosphaerella arachidis)

Cn1cc(C2CN(C(=O)c3cc(-c4ccc(F)cc4F)on3)Cc3ccc(F)cc32)cn1 (stereo not drawn) [Compound P-135, [5-(2,4-difluorophenyl)isoxazol-3-yl]-[6-fluoro-4-(1-methylpyrazol-4-yl)-3,4-dihydro-1H-isoquinolin-2-yl]methanone]
≥ 80%: inhibition of growth at 20 ppm (Botryotinia fuckeliana) | inhibition of growth at 20 ppm [1] | inhibition of growth at 20 ppm (Monographella nivalis) | inhibition of growth at 20 ppm (Mycosphaerella arachidis)

Cn1cc(C2CN(C(=O)c3cc(-c4ccsc4)on3)Cc3ccccc32)cn1 (stereo not drawn) [Compound P-181, [4-(1-methylpyrazol-4-yl)-3,4-dihydro-1H-isoquinolin-2-yl]-[5-(3-thienyl)isoxazol-3-yl]methanone]
≥ 80%: inhibition of growth at 20 ppm (Glomerella lagenarium) | pest or weed control at 200 ppm (Alternaria solani) | inhibition of growth at 20 ppm [1] | inhibition of growth at 20 ppm (Mycosphaerella arachidis)

Cn1cc([C@@]2(C)CN(C(=O)c3nnc(-c4ccc(F)cc4F)s3)Cc3ccccc32)cn1 [Compound P-209, [5-(2,4-difluorophenyl)-1,3,4-thiadiazol-2-yl]-[(4S)-4-methyl-4-(1-methylpyrazol-4-yl)-1,3-dihydroisoquinolin-2-yl]methanone]
≥ 80%: inhibition of growth at 20 ppm (Glomerella lagenarium) | inhibition of growth at 20 ppm (Botryotinia fuckeliana) | inhibition of growth at 20 ppm [1] | inhibition of growth at 20 ppm (Monographella nivalis) | inhibition of growth at 20 ppm (Mycosphaerella arachidis)

Cn1cc(C2CN(C(=O)c3noc(-c4cccc(F)c4)n3)Cc3ccccc32)cn1 (stereo not drawn) [Compound P-92, [5-(3-fluorophenyl)-1,2,4-oxadiazol-3-yl]-[4-(1-methylpyrazol-4-yl)-3,4-dihydro-1H-isoquinolin-2-yl]methanone]
≥ 80%: inhibition of growth at 20 ppm (Glomerella lagenarium) | pest or weed control at 200 ppm (Alternaria solani) | inhibition of growth at 20 ppm [1] | inhibition of growth at 20 ppm (Monographella nivalis) | inhibition of growth at 20 ppm (Mycosphaerella arachidis)

Cn1cc(C2CN(C(=O)c3nc(-c4ccccc4)no3)Cc3ccccc32)cn1 (stereo not drawn) [Compound P-152, [4-(1-methylpyrazol-4-yl)-3,4-dihydro-1H-isoquinolin-2-yl]-(3-phenyl-1,2,4-oxadiazol-5-yl)methanone]
≥ 80%: inhibition of growth at 20 ppm (Glomerella lagenarium) | inhibition of growth at 20 ppm (Botryotinia fuckeliana) | inhibition of growth at 20 ppm [1] | inhibition of growth at 20 ppm (Monographella nivalis) | inhibition of growth at 20 ppm (Mycosphaerella arachidis)

Cc1nn(C)c(C)c1C1CN(C(=O)c2cc(-c3ccc(F)cc3)on2)Cc2ccccc21 (stereo not drawn) [Compound P-118, [5-(4-fluorophenyl)isoxazol-3-yl]-[4-(1,3,5-trimethylpyrazol-4-yl)-3,4-dihydro-1H-isoquinolin-2-yl]methanone]
≥ 80%: pest or weed control at 200 ppm (Alternaria solani) | inhibition of growth at 20 ppm [1] | inhibition of growth at 20 ppm (Mycosphaerella arachidis)

Cn1cc(C2CN(C(=O)c3cc(-c4ccccc4F)on3)Cc3ccccc32)cn1 (stereo not drawn) [Compound P-191, [5-(2-fluorophenyl)isoxazol-3-yl]-[4-(1-methylpyrazol-4-yl)-3,4-dihydro-1H-isoquinolin-2-yl]methanone]
≥ 80%: inhibition of growth at 20 ppm (Glomerella lagenarium) | pest or weed control at 200 ppm (Alternaria solani) | inhibition of growth at 20 ppm [1] | inhibition of growth at 20 ppm (Monographella nivalis) | inhibition of growth at 20 ppm (Mycosphaerella arachidis)

CC1c2ccc(Br)cc2C(C)(c2cnn(C)c2)CN1C(=O)c1cc(-c2ccc(F)cc2F)on1 (stereo not drawn) [Compound P-215, [6-bromo-1,4-dimethyl-4-(1-methylpyrazol-4-yl)-1,3-dihydroisoquinolin-2-yl]-[5-(2,4-difluorophenyl)isoxazol-3-yl]methanone]
≥ 80%: inhibition of growth at 20 ppm (Glomerella lagenarium) | inhibition of growth at 20 ppm (Botryotinia fuckeliana) | inhibition of growth at 20 ppm [1] | inhibition of growth at 20 ppm (Monographella nivalis) | inhibition of growth at 20 ppm (Mycosphaerella arachidis)

Cn1cc(C2CN(C(=O)c3cc(-c4cccc(F)c4)no3)Cc3ccccc32)cn1 (stereo not drawn) [Compound P-159, [3-(3-fluorophenyl)isoxazol-5-yl]-[4-(1-methylpyrazol-4-yl)-3,4-dihydro-1H-isoquinolin-2-yl]methanone]
≥ 80%: inhibition of growth at 20 ppm (Botryotinia fuckeliana) | inhibition of growth at 20 ppm [1] | inhibition of growth at 20 ppm (Monographella nivalis) | inhibition of growth at 20 ppm (Mycosphaerella arachidis)

Cn1cc(C2CN(C(=O)c3cc(-c4ccc(F)cc4)on3)Cc3ccccc32)cn1 (stereo not drawn) [Compound P-192, [5-(4-fluorophenyl)isoxazol-3-yl]-[4-(1-methylpyrazol-4-yl)-3,4-dihydro-1H-isoquinolin-2-yl]methanone]
≥ 80%: inhibition of growth at 20 ppm (Glomerella lagenarium) | inhibition of growth at 20 ppm (Botryotinia fuckeliana) | inhibition of growth at 20 ppm [1]

Cn1cc(C2CN(C(=O)c3cc(-c4ccc(F)cc4F)on3)Cc3cc(F)ccc32)cn1 (stereo not drawn) [Compound P-134, [5-(2,4-difluorophenyl)isoxazol-3-yl]-[7-fluoro-4-(1-methylpyrazol-4-yl)-3,4-dihydro-1H-isoquinolin-2-yl]methanone]
≥ 80%: pest or weed control at 200 ppm (Alternaria solani) | inhibition of growth at 20 ppm [1] | inhibition of growth at 20 ppm (Monographella nivalis) | inhibition of growth at 20 ppm (Mycosphaerella arachidis)

Cn1cc(C2CN(C(=O)c3cc(-c4ccccc4F)no3)Cc3ccccc32)cn1 (stereo not drawn) [Compound P-154, [3-(2-fluorophenyl)isoxazol-5-yl]-[4-(1-methylpyrazol-4-yl)-3,4-dihydro-1H-isoquinolin-2-yl]methanone]
≥ 80%: inhibition of growth at 20 ppm (Glomerella lagenarium) | inhibition of growth at 20 ppm (Botryotinia fuckeliana) | inhibition of growth at 20 ppm [1] | inhibition of growth at 20 ppm (Monographella nivalis) | inhibition of growth at 20 ppm (Mycosphaerella arachidis)

Cc1c(C2(C)CN(C(=O)c3cc(-c4ccc(F)cc4F)on3)C(C)c3ccccc32)cnn1C (stereo not drawn) [Compound P-16, [5-(2,4-difluorophenyl)isoxazol-3-yl]-[4-(1,5-dimethylpyrazol-4-yl)-1,4-dimethyl-1,3-dihydroisoquinolin-2-yl]methanone]
≥ 80%: inhibition of growth at 20 ppm (Glomerella lagenarium) | inhibition of growth at 20 ppm (Botryotinia fuckeliana) | inhibition of growth at 20 ppm [1] | inhibition of growth at 20 ppm (Monographella nivalis) | inhibition of growth at 20 ppm (Mycosphaerella arachidis)

Cn1cc(C2CN(C(=O)c3cc(C4CCC4)on3)Cc3ccccc32)cn1 (stereo not drawn) [Compound P-182, (5-cyclobutylisoxazol-3-yl)-[4-(1-methylpyrazol-4-yl)-3,4-dihydro-1H-isoquinolin-2-yl]methanone]
≥ 80%: pest or weed control at 200 ppm (Alternaria solani) | inhibition of growth at 20 ppm [1] | inhibition of growth at 20 ppm (Mycosphaerella arachidis)
